Measurements as given in US20230172201A1, “Use of 4-Phenylbutyric Acid and/or 3-Phenylbutyric Acid and/or 2-Phenylbutyric Acid in Preventing and Treating Cryptogamic Diseases” (Institut National de Recherche Pour L'Agriculture, …, priority 2020, published 2023).

Assays:
[1] = tested on: Botrytis cinerea (BMM strain); test: Protection of thale cress leaves against gray rot, B. cinerea spore inoculum with or without 4-PBA; assay type: in vivo; conditions: A. thaliana Col-0 leaves, 4-PBA 1 mM in inoculum
[2] = tested on: Botrytis cinerea (BMM strain); test: Protection of tomato foliar disks against gray rot, B. cinerea spore inoculum with or without compound; assay type: in vivo; conditions: for proportion of lesions larger than 4 mm in diameter: tomato Moneymaker foliar disks, 3 days; for median ratio of gDNA of the fungus to that of the plant, times lower than fungus alone / decrease of the average diameter of the lesions: tomato Moneymaker
[3] = tested on: Botrytis cinerea (BMM strain); test: Protection of grapevine foliar disks against gray rot, B. cinerea spore inoculum with or without 4-PBA; assay type: in vivo; conditions: grapevine cv. Gamay foliar disks; 4-PBA 1 mM; 5·10^4 spores/mL; 3 days
Protocol: Material and Methods. A commercial variety of grapevine (Vitis […], cultivar Gamay) was grown in a greenhouse for 6 weeks. […] The inoculum was prepared as mentioned above for the experiments carried out with A. thaliana. A volume of 6 μL was deposited on each disk. The infected disks were incubated as for the experiments carried out on foliar disks of tomato. The disease symptoms were photographed and quantified 3 days after infection from the distribution of the lesions as a function of their diameter and by measuring the largest diameter of the lesions. […] The results presented in FIG. 4 correspond to the mean values±standard deviation.

[4] = tested on: Arabidopsis thaliana (ecotype Col-0); test: Effect of watering with 4-PBA on vegetative growth (rosette weight); assay type: in vivo; conditions: watering with 1 mM once a week for 4 weeks
Protocol: Material and Methods. The seeds of A. thaliana (ecotype Col-0) were sown in individual pots directly on compost without a prior step of stratification. […] These plants were then separated into 2 batches with 12 plants each, one watered with distilled water, the other with a solution of 4-PBA at a final concentration of 1 mM. In practice, watering took place once a week on a fixed day and at a fixed time, for 4 consecutive weeks (FIG. 5a). […] The rosette of each of the plantlets was then weighed to evaluate the effect of watering with 4-PBA on vegetative growth.

[5] = tested on: Arabidopsis thaliana (ecotype Col-0); test: Phytotoxicity after leaf infiltration; assay type: in vivo; conditions: 0.5 or 1 mM; 48 hours after infiltration
Protocol: Material and Methods. Seeds of A. thaliana (ecotype Col-0) were sown in individual pots directly on compost without a prior step of stratification. […] The experiment was repeated 3 times. Each experiment included about ten plants. Six leaves representative of the 3 experiments were photographed 48 hours after infiltration (FIG. 5c).

[6] = tested on: Botrytis cinerea (BMM strain); test: Germination of the spores and growth of the primary hypha in liquid medium; assay type: cell-based; conditions: 16 to 18 hours
[7] = tested on: Botrytis cinerea (BMM strain); test: Mycelial development in liquid medium, absorbance at 600 nm (nephelometry); assay type: cell-based; conditions: 1 mM
Fusarium graminearum = test: microbe, parasite or virus in culture; assay type: cell-based
Fusarium verticilloides = test: Radial growth of the mycelium; assay type: cell-based; conditions: 288 h
Leptosphaeria maculans = test: Radial growth of the mycelium; assay type: cell-based; conditions: Plenodomus lingam, 432 h, time 18 days
[8] = tested on: Fusarium oxysporum f. sp melonis; test: Radial growth of the mycelium; assay type: cell-based; conditions: 288 h
Alternaria solani = test: Radial growth of the mycelium; assay type: cell-based; conditions: 528 h
Alternaria brassicicola = test: Radial growth of the mycelium; assay type: cell-based; conditions: 240 h; for inhibition at 1000 µM / inhibition at 2000 µM / inhibition at 5000 µM: time 10 days
Cercospora beticola = test: Radial growth of the mycelium; assay type: cell-based; conditions: 528 h
Phytophthora parasitica = test: Radial growth of the oomycete; assay type: cell-based
Phytophthora capsici = test: Radial growth of the oomycete; assay type: cell-based
[9] = tested on: Phanerochaete chrysosporium; test: Radial growth of the mycelium; assay type: cell-based
[10] = tested on: Botrytis cinerea (BMM strain); test: Radial growth of the mycelium on solid PDA medium
Protocol: The BMM strain of the fungus B. cinerea was cultured for about 10 days on solid PDA medium (24 g/L of PDB and 15 g/L of agar) in the dark and at a temperature of 22° C. A cylinder of agar comprising the mycelium at its top was then cut out with a sterile punch with a diameter of 6 mm, and was then deposited at the center of round Petri dishes (9 cm diameter) containing PDA medium supplemented or not with 4-PBA. 4-PBA, prepared extemporaneously, was added directly to the molten culture medium to final concentrations of 1, 2 and 5 mM. Controls were prepared by adding a volume of sterile water equivalent to the highest concentration of 4-PBA. The dishes were kept in the dark at a temperature of 22° C. throughout the experiment. […] For this, the following linear regression was used: Degree of inhibition (%)=f(ln[4-PBA]).

[11] = time 12 days (day control colonized the whole Petri dish)
[12] = time 22 days (day control colonized the whole Petri dish)

O=C(O)CCCc1ccccc1 [4-PBA, 4-Phenylbutyric acid]
leaves that did not display symptoms ([1]; 5·10^4 spores/mL, 4 days after inoculation): 37%
proportion of lesions whose diameter was greater than 4 mm ([1]; 4 days after inoculation): 23%
average diameter of the lesions divided by ([1]; 4 days, relative to fungus alone): 2.2 times
ratio of gDNA of the fungus to that of the plant, median decrease by a factor ([1]; quantitative PCR): 10
average diameters of the foliar lesions as a function of concentration ([2]; tomato M82 foliar disks, 0.5 to 2.5 mM): gradual decrease
efficacy of protection compared with the Moneymaker variety ([2]; tomato M82 foliar disks, 4-PBA 1 mM): equivalent efficacy
proportion of lesions larger than 4 mm in diameter ([2]; 4-PBA 1 mM, 5·10^4 spores/mL): 15%
proportion of lesions larger than 4 mm in diameter ([2]; 4-PBA 1 mM, 5·10^5 spores/mL): 23%
median ratio of gDNA of the fungus to that of the plant, times lower than fungus alone ([2]; 4-PBA 1 mM, 5·1^04 spores/mL): 40 times
median ratio of gDNA of the fungus to that of the plant, times lower than fungus alone ([2]; 4-PBA 1 mM, 5·10^5 spores/mL): 10 times
decrease of the average diameter of the lesions ([2]; 4-PBA 1 mM, highest concentration of spores (5·10^5 spores/mL)): 58%
decrease of the average diameter of the lesions ([2]; 4-PBA 1 mM, lowest concentration of spores (5·10^4 spores/mL)): 68%
decrease in the average diameter of the lesions [3]: ~75%
effect on the aerial biomass [4]: no effect
macroscopic symptoms after infiltration of the leaves [5]: absence of macroscopic symptoms
germination rate of the spores ([6]; 4-PBA 0.1 mM): 100%
inhibition at 1000 µM ([6]; Botrytis cinerea, 1 mM): 86%
concentration from which growth of the primary hypha is limited ([6]; liquid PDB): ≥ 0.1 mM
repression of mycelial growth measured by nephelometry ([7]; 4 days, Example 3): 94%
inhibition at 1000 µM ([7]; Botrytis cinerea, 96 h, incubation for 4 days, Example 4, read-out: degree of inhibition): 97%
inhibition at 1000 µM (Fusarium graminearum; Fusarium graminearum, 144 h): 48%
inhibition at 2000 µM (Fusarium graminearum; Fusarium graminearum, 144 h): 97%
inhibition at 5000 µM (Fusarium graminearum; Fusarium graminearum, 144 h): 99%
persistence of the molecule (Fusarium graminearum; lowest concentration tested (1 mM)): up to 10 days
inhibition at 1000 µM (Fusarium verticilloides; 1 mM 4-PBA, time 12 days): 66%
inhibition at 2000 µM (Fusarium verticilloides; 2 mM 4-PBA, time 12 days): 74%
inhibition at 5000 µM (Fusarium verticilloides; 5 mM 4-PBA, time 12 days): 98%
EC50 (Fusarium verticilloides; [11]): 500 µM
inhibition at 1000 µM (Leptosphaeria maculans; 1 mM 4-PBA): 73%
inhibition at 2000 µM (Leptosphaeria maculans; 2 mM 4-PBA): 99%
inhibition at 5000 µM (Leptosphaeria maculans; 5 mM 4-PBA): 99%
inhibition at 1000 µM ([8]; 1 mM 4-PBA, time 12 days): 68%
inhibition at 2000 µM ([8]; 2 mM 4-PBA, time 12 days): 80%
inhibition at 5000 µM ([8]; 5 mM 4-PBA, time 12 days): 99%
EC50 [8, 11]: 400 µM
inhibition at 1000 µM (Alternaria solani; 1 mM 4-PBA, time 22 days): 25%
inhibition at 2000 µM (Alternaria solani; 2 mM 4-PBA, time 22 days): 62%
inhibition at 5000 µM (Alternaria solani; 5 mM 4-PBA, time 22 days): 100%
EC50 (Alternaria solani; [12]): 1650 µM
inhibition at 1000 µM (Alternaria brassicicola; strain 1, 1 mM 4-PBA): 70%
inhibition at 2000 µM (Alternaria brassicicola; strain 1, 2 mM 4-PBA): 88%
inhibition at 5000 µM (Alternaria brassicicola; strain 1, 5 mM 4-PBA): 97%
EC50 (Alternaria brassicicola; strain 1, time 10 days): 260 µM
inhibition at 1000 µM (Alternaria brassicicola; strain 1509, 1 mM 4-PBA): 58%
inhibition at 2000 µM (Alternaria brassicicola; strain 1509, 2 mM 4-PBA): 81%
inhibition at 5000 µM (Alternaria brassicicola; strain 1509, 5 mM 4-PBA): 96%
EC50 (Alternaria brassicicola; strain 1509, time 10 days): 640 µM
inhibition at 1000 µM (Cercospora beticola; 1 mM 4-PBA, time 22 days): 0%
inhibition at 2000 µM (Cercospora beticola; 2 mM 4-PBA, time 22 days): 13%
inhibition at 5000 µM (Cercospora beticola; 5 mM 4-PBA, time 22 days): 67%
EC50 (Cercospora beticola; [12]): 2810 µM
growth at higher concentrations (Phytophthora parasitica; 2 and 5 mM): complete absence of growth for 20 days
inhibition at 1000 µM (Phytophthora parasitica; Phytophthora nicotianae, 240 h, 1 mM 4-PBA, time 10 days): 95%
inhibition at 2000 µM (Phytophthora parasitica; Phytophthora nicotianae, 240 h, 2 mM 4-PBA, time 10 days): 99%
inhibition at 5000 µM (Phytophthora parasitica; Phytophthora nicotianae, 240 h, 5 mM 4-PBA, time 10 days): 100%
EC50 (Phytophthora parasitica; Phytophthora nicotianae, 240 h, time 10 days (day control colonized the whole Petri dish)): 0.00024 µM
difference between EC50 calculated for B. cinerea and for P. parasitica (Phytophthora parasitica; Table 2 and FIG. 6b): 7 orders of magnitude
times more sensitive to the molecule than B. cinerea (Phytophthora parasitica; radial growth EC50 compared with B. cinerea): about 12 million
growth at higher concentrations (Phytophthora capsici; 2 and 5 mM): complete absence of growth for 20 days
inhibition at 1000 µM (Phytophthora capsici; Phytophthora capsici, 216 h, 1 mM 4-PBA, time 9 days): 90%
inhibition at 2000 µM (Phytophthora capsici; Phytophthora capsici, 216 h, 2 mM 4-PBA, time 9 days): 100%
inhibition at 5000 µM (Phytophthora capsici; Phytophthora capsici, 216 h, 5 mM 4-PBA, time 9 days): 100%
time for the fungus to overcome supplementation of the culture medium ([9]; 4-PBA 1 mM): 14 days
inhibition at 1000 µM ([9]; Phanerodontia chrysosporium, 96 h, 1 mM 4-PBA, time 4 days): 99%
inhibition at 2000 µM ([9]; Phanerodontia chrysosporium, 96 h, 2 mM 4-PBA, time 4 days): 100%
inhibition at 5000 µM ([9]; Phanerodontia chrysosporium, 96 h, 5 mM 4-PBA, time 4 days): 100%
development at higher concentrations ([9]; final concentrations of 2 and 5 mM): unable to develop
persistence of the active principle ([10]; 5 mM in culture medium): up to 23 days
radial growth of the mycelium ([10]; 1, 2 and 5 mM in PDA, 26 days): dose-dependent slowing
EC50 ([10]; Botrytis cinerea, read-out: EC50 (median inhibitory concentration, radial growth halved)): 2000 to 3000 µM
